ChEMBL document CHEMBL1201862, “PubChem BioAssay data set” (2004)
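Following 48 hours of exposure in 96-well plates, responses at five concentrations were used to interpolate endpoints linearly. GI50 marks 50% less growth.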 Calls of active or inactive are those of the source. Cut-off read from the data, not from the text of the source: active = GI50 up to about 1.1 µM and inactive = higher.

Columns and labels:
Assay in all cases: growth of human tumour cells (NCI), 48 h
[1] = system: A549
[2] = system: UACC-257
[3] = system: HOP-92
[4] = system: SK-MEL-2
[5] = system: TK-10
[6] = system: ACHN
[7] = system: OVCAR-3
[8] = system: RXF 393
[9] = system: 786-0
[10] = system: DLD-1
[11] = system: HCC 2998
[12] = system: K562
[13] = system: HL-60
[14] = system: SF-268
[15] = system: NCI-H460

SMILES | GI50 [1] | GI50 [2] | GI50 [3] | GI50 [4] | GI50 [5] | GI50 [6] | GI50 [7] | GI50 [8] | GI50 [9] | GI50 [10] | GI50 [11] | GI50 [12] | GI50 [13] | GI50 [14] | GI50 [15]
COc1ccc2nc3ccccc3c(NCCN(CCCl)CCCl)c2c1 | 0.771 µM (active) | 1.3 µM (inactive) | 0.476 µM (active) | 1.81 µM (inactive) | 1.76 µM (inactive) | 0.336 µM (active) | 0.269 µM (active) | 1.66 µM (inactive) | 0.33 µM (active) | 0.738 µM (active) | 1.28 µM (inactive) | 0.407 µM (active) | 0.206 µM (active) | 0.783 µM (active) | –
COc1ccc(-c2cc(=O)c3c(O)cc(O)cc3o2)c(OC)c1OC | 59.3 µM (inactive) | > 100 µM (inactive) | 72.6 µM (inactive) | > 100 µM (inactive) | > 100 µM (inactive) | > 10 µM (inactive) | 38.9 µM (inactive) | 48.8 µM (inactive) | 80 µM (inactive) | 81.3 µM (inactive) | 92 µM (inactive) | 42.7 µM (inactive) | 10.1 µM (inactive) | 85.3 µM (inactive) | –
CCCc1nn(C)c(CCC(=O)N(Cc2ccccc2)Cc2ccccc2)c1CC | > 100 µM (inactive) | > 100 µM (inactive) | > 100 µM (inactive) | > 100 µM (inactive) | > 100 µM (inactive) | > 100 µM (inactive) | > 100 µM (inactive) | > 100 µM (inactive) | > 100 µM (inactive) | > 100 µM (inactive) | > 100 µM (inactive) | – | > 100 µM (inactive) | > 100 µM (inactive) | > 100 µM (inactive)
c1ccc(-c2nnc3nn4c(-c5ccccc5)cnnc4c3c2-c2ccccc2)cc1 | 50.8 µM (inactive) | 96.8 µM (inactive) | 59.8 µM (inactive) | > 100 µM (inactive) | 19.2 µM (inactive) | 55.6 µM (inactive) | 26.4 µM (inactive) | 14.7 µM (inactive) | 0.0794 µM (active) | 95.1 µM (inactive) | 48.2 µM (inactive) | 75 µM (inactive) | 3.12 µM (inactive) | – | 75.7 µM (inactive)
CS(=O)(=O)c1ccc(COP(N)(=O)N(CCCl)CCCl)cc1 (stereo not drawn) | > 100 µM (inactive) | > 100 µM (inactive) | > 100 µM (inactive) | > 100 µM (inactive) | > 100 µM (inactive) | > 100 µM (inactive) | > 100 µM (inactive) | > 100 µM (inactive) | > 100 µM (inactive) | > 100 µM (inactive) | > 100 µM (inactive) | > 100 µM (inactive) | – | > 100 µM (inactive) | > 100 µM (inactive)
CC(=O)OC1COC(n2c(=S)n(-c3ccccc3)c(=O)c3ccccc32)C(OC(C)=O)C1OC(C)=O (stereo not drawn) | 39.9 µM (inactive) | > 100 µM (inactive) | 37.1 µM (inactive) | 13.1 µM (inactive) | – | 25.2 µM (inactive) | 74.6 µM (inactive) | 55.3 µM (inactive) | 78.9 µM (inactive) | 56.5 µM (inactive) | 58.2 µM (inactive) | 2.51 µM (inactive) | 20.4 µM (inactive) | 89.9 µM (inactive) | 66.1 µM (inactive)
CC[C@H](C)C(=O)O[C@H]1C[C@@H](C)C=C2C=C[C@H](C)[C@H](CC[C@@H]3C[C@@H](O)CC(=O)O3)[C@H]21 [LOVASTATIN] | 21.2 µM (inactive) | 20 µM (inactive) | 0.0308 µM (active) | 13.2 µM (inactive) | 16.2 µM (inactive) | 1.76 µM (inactive) | > 30 µM (inactive) | 2.52 µM (inactive) | 9.77 µM (inactive) | > 30 µM (inactive) | 15.1 µM (inactive) | 19.5 µM (inactive) | 8.83 µM (inactive) | – | 18 µM (inactive)
